Test results: ChEMBL document CHEMBL5352464, “Structure based design and evaluation of benzoheterocycle derivatives as potential dual HIV-1 protease and reverse transcriptase inhibitors” (Eur J Med Chem, 2023)

How the values were obtained:
[1] = molecular target: Human immunodeficiency virus type 1 protease (Human immunodeficiency virus 1, UniProt Q72874); assay: Inhibition of HIV-1 protease expressed in Escherichia coli using Arg-Glu-(EDANS)-Ser-Gln-Asn-Tyr-Pro-Ile-Val-Gln-Lys-([…])-Arg as substrate preincubated with compound for 20 to 30 mins followed by substrate addition and measured after 10 mins by FRET analysis
[2] = molecular target: Human immunodeficiency virus type 1 reverse transcriptase (Human immunodeficiency virus 1, UniProt Q72547); assay: Inhibition of HIV-1 NL4-3 reverse transcriptase by RT-PCR analysis
[3] = test system: Human immunodeficiency virus 1; assay: Antiviral activity against VSV-G pseudotyped HIV1 NL4-3 infected in HEK293T cells assessed as inhibition of late stage viral replication pre-infected with cells for 5 hrs followed by compound treatment for 48 hrs and further infected with human SupT1 cells for 48 hrs by luciferase based analysis; assay type: functional, organism-based; details: Human immunodeficiency virus 1, NL4-3, HEK-293T
[4] = molecular target: Human immunodeficiency virus type 1 reverse transcriptase (Human immunodeficiency virus 1) (UniProt Q72547); assay: Inhibition of HIV-1 NL4-3 reverse transcriptase at 100 uM by RT-PCR analysis relative to control
[5] = test system: Human immunodeficiency virus 1; assay: microbe, parasite or virus in culture
[6] = test system: Human immunodeficiency virus 1; assay: Antiviral activity against wild-type HIV1 NL4-3 infected in human SUP-T1 cells assessed as inhibition of viral replication pre-infected with compound for 1 day followed by compound washout and replaced with fresh medium for 48 hrs and further infected with human TZM-bl cells by lucifrease based analysis; assay type: functional, organism-based; details: Human immunodeficiency virus 1, NL4-3, SUP-T1
[7] = test system: Human immunodeficiency virus 1; assay: microbe, parasite or virus in culture; details: Human immunodeficiency virus 1, NL4-3, SUP-T1, 48 h
Description: Antiviral activity against VSV-G pseudotyped HIV1 NL4-3 infected in human SUP-T1 cells assessed as inhibition of early stage viral replication incubated for 48 hrs by luciferase based analysis

[8] = Selectivity ratio of EC50 for antiviral activity against VSV-G pseudotyped HIV1 NL4-3 infected in human SUP-T1 cells assessed as inhibition of early stage viral replication to EC50 for antiviral activity against VSV-G pseudotyped HIV1 NL4-3 infected in HEK293T cells assessed as inhibition of late stage viral replication; assay type: functional, Human immunodeficiency virus 1
[9] = Selectivity ratio of EC50 for antiviral activity against DRV-resistant HIV1 mutant to EC50 for antiviral activity against wild-type HIV1 NL4-3 infected in human SUP-T1 cells assessed as inhibition of viral replication; assay type: functional, Human immunodeficiency virus 1

| SMILES | IC50 [1] [µM] | IC50 [2] [µM] | inhibition [4] [%] | also measured |
| --- | --- | --- | --- | --- |
| COc1ccc(S(=O)(=O)N(CC(C)C)C[C@@H](O)[C@H](Cc2ccccc2)NC(=O)c2cc3cc(O)c(O)cc3[nH]2)cc1 | 1.07 | 96.5 |  |  |
| O=C1Nc2ccc(Cl)cc2[C@@](C#CC2CC2)(C(F)(F)F)O1 [EFAVIRENZ] |  |  |  | EC50 [3]: > 100 µM |
| CC(C)CN(C[C@@H](O)[C@H](Cc1ccccc1)NC(=O)c1cc2ccc(O)cc2o1)S(=O)(=O)c1ccc(N)cc1 | 3.05 |  | < 20 |  |
| CC(C)CN(C[C@@H](O)[C@H](Cc1ccccc1)NC(=O)c1cc2ccccc2o1)S(=O)(=O)c1ccc(N)cc1 | 16.3 |  | < 20 |  |
| COc1ccc(S(=O)(=O)N(CC(C)C)C[C@@H](O)[C@H](Cc2ccccc2)NC(=O)c2cc3cc(O)ccc3o2)cc1 | 2.38 |  | < 20 |  |
| COc1ccc(S(=O)(=O)N(CC(C)C)C[C@@H](O)[C@H](Cc2ccccc2)NC(=O)c2coc3cc(O)ccc23)cc1 | 1.56 | 60.3 |  |  |
| COc1ccc(S(=O)(=O)N(CC(C)C)C[C@@H](O)[C@H](Cc2ccccc2)NC(=O)c2cc3cc(O)c(O)cc3o2)cn1 | 2.31 | 5.82 |  | EC50 [5]: 17 µM; EC50 [3]: 4.2 µM; EC50 [6]: 4.2 µM; EC50 [7]: 14.5 µM; Ratio EC50 [8]: 3.45; Ratio EC50 [9]: 4.1 |
| COc1ccc(S(=O)(=O)N(CC(C)C)C[C@@H](O)[C@H](Cc2ccccc2)NC(=O)c2cc3cc(O)ccc3[nH]2)cn1 | 0.74 |  | < 20 |  |
| COc1ccc(S(=O)(=O)N(CC(C)C)C[C@@H](O)[C@H](Cc2ccccc2)NC(=O)c2c[nH]c3ccccc23)cc1 | 12.9 |  | < 20 |  |
| COc1ccc(S(=O)(=O)N(CC(C)C)C[C@@H](O)[C@H](Cc2ccccc2)NC(=O)c2cc3ccc(N)cc3o2)cc1 | 3.73 |  | < 20 |  |
| COc1ccc(S(=O)(=O)N(CC(C)C)C[C@@H](O)[C@H](Cc2ccccc2)NC(=O)c2cc3ccccc3[nH]2)cc1 | 7.51 |  | < 20 |  |
| COc1ccc(S(=O)(=O)N(CC(C)C)C[C@@H](O)[C@H](Cc2ccccc2)NC(=O)c2coc3cc(O)c(O)cc23)cn1 | 1.36 | 7.5 |  | EC50 [5]: 2.83 µM; EC50 [3]: 1.76 µM; EC50 [6]: 1.76 µM; EC50 [7]: 22.7 µM; Ratio EC50 [8]: 12.88; Ratio EC50 [9]: 1.6 |
| COc1ccc(S(=O)(=O)N(CC(C)C)C[C@@H](O)[C@H](Cc2ccccc2)NC(=O)c2cc3ccccc3o2)cc1 | 9.21 | 65.5 |  |  |
| CC(C)CN(C[C@@H](O)[C@H](Cc1ccccc1)NC(=O)O[C@H]1CO[C@H]2OCC[C@H]21)S(=O)(=O)c1ccc(N)cc1 |  |  |  | EC50 [3]: 0.002 µM; EC50 [6]: 0.002 µM |
| COc1ccc(S(=O)(=O)N(CC(C)C)C[C@@H](O)[C@H](Cc2ccccc2)NC(=O)c2cc3cc(N)ccc3o2)cc1 | 5.3 |  | < 20 |  |
| COc1ccc(S(=O)(=O)N(CC(C)C)C[C@@H](O)[C@H](Cc2ccccc2)NC(=O)c2cc3cc(O)ccc3[nH]2)cc1 | 0.58 |  | < 20 |  |
| COc1ccc(S(=O)(=O)N(CC(C)C)C[C@@H](O)[C@H](Cc2ccccc2)NC(=O)c2cc3ccc(O)cc3o2)cc1 | 2 |  | < 20 |  |
| COc1ccc(S(=O)(=O)N(CC(C)C)C[C@@H](O)[C@H](Cc2ccccc2)NC(=O)c2cc3ccc(O)cc3[nH]2)cn1 | 0.46 |  | < 20 |  |
| COc1ccc(S(=O)(=O)N(CC(C)C)C[C@@H](O)[C@H](Cc2ccccc2)NC(=O)c2cc3ccc(O)cc3o2)cn1 | 2.84 | 223 |  |  |
| CC(C)CN(C[C@@H](O)[C@H](Cc1ccccc1)NC(=O)c1cc2ccc(O)cc2[nH]1)S(=O)(=O)c1ccc(N)cc1 | 0.55 | 178 |  |  |
| COc1ccc(S(=O)(=O)N(CC(C)C)C[C@@H](O)[C@H](Cc2ccccc2)NC(=O)c2cc3cc(O)c(O)cc3o2)cc1 | 1.93 | 2.35 |  | EC50 [5]: 16.6 µM; EC50 [3]: 4.4 µM; EC50 [6]: 4.4 µM; EC50 [7]: 9.33 µM; Ratio EC50 [8]: 2.12; Ratio EC50 [9]: 3.8 |
| CC(C)CN(C[C@@H](O)[C@H](Cc1ccccc1)NC(=O)c1cc2cc(O)ccc2o1)S(=O)(=O)c1ccc(N)cc1 | 4.53 |  | < 20 |  |
| CC(C)CN(C[C@@H](O)[C@H](Cc1ccccc1)NC(=O)c1cc2cc(O)ccc2[nH]1)S(=O)(=O)c1ccc(N)cc1 | 0.86 | 102 |  |  |
| COc1ccc(S(=O)(=O)N(CC(C)C)C[C@@H](O)[C@H](Cc2ccccc2)NC(=O)c2cc3ccc(O)cc3[nH]2)cc1 | 0.5 | 164 |  |  |
| COc1ccc(S(=O)(=O)N(CC(C)C)C[C@@H](O)[C@H](Cc2ccccc2)NC(=O)c2coc3ccc(O)cc23)cc1 | 2.05 | 82.7 |  |  |
| COc1ccc(S(=O)(=O)N(CC(C)C)C[C@@H](O)[C@H](Cc2ccccc2)NC(=O)c2cc3cc(O)ccc3o2)cn1 | 1.98 | 118 |  |  |
| COc1ccc(S(=O)(=O)N(CC(C)C)C[C@@H](O)[C@H](Cc2ccccc2)NC(=O)c2coc3ccccc23)cc1 | 8.96 |  | < 20 |  |
| COc1ccc(S(=O)(=O)N(CC(C)C)C[C@@H](O)[C@H](Cc2ccccc2)NC(=O)c2cc3cc(O)c(O)cc3[nH]2)cn1 | 0.84 | 1.52 |  | EC50 [5]: 2.19 µM; EC50 [3]: 0.17 µM; EC50 [6]: 0.17 µM; EC50 [7]: 10.5 µM; Ratio EC50 [8]: 61.59; Ratio EC50 [9]: 12.9 |
